A short description of one data set: acute oral toxicity. The note with it: mouse, in vivo, male mice. The text has this:
Further, these compounds have no detrimental effects on test animals administered therewith, so far as the doses thereof are within an ordinary administration range.

Data set [1] deals with acute liver damage induced by allyl alcohol. The experiment in a line: Protective Effect on Acute Liver Damage associated with Periportal Necrosis (allyl alcohol), BSP test. The data set is classed as in vivo, mouse (dd-strain). The note with it: 100 mg/kg oral, 6 h before allyl alcohol (0.075 mg/kg oral); 24 h. As to the method:
The compund of this invention or anethol trithion was orally administered to the male mouse (4 week-old, dd-strain) at the dose of 100 mg/kg. Six hours after it, allyl alcohol was orally administered at the dose of 0.075 mg/kg. Twenty four hours after it, the animals were sacrificed to collect blood samples.

The test system of data set [2] is acute hepatitis induced by D-galactosamine. In words: Protective Effect on Acute Hepatitis associated with Mesenchymal Reaction and Discrete Lobular Necrosis (D-galactosamine). To be noted: 100 mg/kg oral, 6 h before D-galactosamine 600 mg/kg i.p. (+ 300 mg/kg). The data set is classed as in vivo, rat (SD strain). The method, then: D-Galactosamine is a compound which induces a discrete lobular necrosis associated with mesenchymal reaction similar to the change observed in human viral hepatitis, so that it is frequently used in producing a model for viral hepatitis.
The compound of this invention or anethol trithion was administered orally to the male rat (SD strain) at the dose of 100 mg/kg. Six hours after it, D-galactosamine was intraperitoneally administered at the dose of 600 mg/kg. Four hours after it, an additional 300 mg/kg was administered intraperitoneally. Eight hours after it, the animals were sacrificed to collect the blood samples. P-GPT activity and triglyceride in the liver were measured to evaluate the effect of the compound of this invention.

The test system of data set [3] is fatty liver induced by ethionine. The experiment in a line: Effect on Fatty Liver (ethionine). The data set is classed as in vivo, mouse (dd-strain). To be noted: 250 mg/kg oral, 24 h, 10 animals. The text has this: But, the fatty liver is grouped into a couple of patterns from the mechanism of lipid accumulation or metabolism of lipoprotein in the liver. Ethionine is a typical example which induces first pattern of fatty liver. It inhibits RNA and protein synthesis and destructs polysome of the liver cell. Fatty liver is induced by inhibition of the protein synthesis and disturbance of lipoprotein secretion.
Usually, fatty liver is closely related to the accumulation of triglyceride in the liver. In the present example, the degree of fatty liver and protective or therapeutic effect against the fatty liver was evaluated by measurement of triglyceride content in the liver. Methods:
The compounds of this invention and methionine were independently dissolved or suspended into olive oil and administered orally to 4 week-old male mouse (dd-strain) at the dose of 250 mg/kg. One hour before it, simultaneously to it, or one hour after it, ethionine dissolved in equimolar NaOH solution was administered intraperitoneally at the dose of 200 mg/kg. Twenty four hours after the administration of ethionine, the animals were sacrificed and triglyceride content in the liver was determined by chromotropic acid method.

Data set [4] relates to glucose metabolism. In words: Effect on glucose metabolism. The data set is classed as in vivo, mice. To be noted: 250 mg/kg oral, 6 h before glucose 4.0 g/kg. As to the method: The test compounds dissolved in olive oil and administered orally at the dose of 250 mg/kg to the mice. After 6 hours, 4.0 g/kg of glucose was orally administered. The same amount of glucose was given to the control animals. 0.02 ml of blood was taken from caudal vein of the mice at 30, 60, 90 and 120 min. after glucose administration. Blood sugar was measured by the procedure of Somogyi-Nelson. Number of animals used was 5 to 6 mice for each treatment.

In data set [5] the test system is glucose metabolism. In words: Effect on glucose metabolism. The class given is in vivo, mice. To be noted: 250 mg/kg oral, 6 h before glucose 4.0 g/kg; 0 min.
The mark [6] stands for this setting: compound 1 hr before ethionine (200 mg/kg i.p.).
The mark [7] stands for this setting: simultaneous with ethionine (0 hr).

In the data set “acute oral toxicity”, `CC(C)OC(=O)C(C(=O)OC(C)C)=C1SCC(O)S1` (stereo not drawn) [Compound 2, Diisopropyl 4-hydroxy-1,3-dithiolan-2-ylidene malonate] showed a 50% lethal dose (LD50) greater than 6590 mg/kg. Further, in data set [1], the “BSP (residual quantity)” value is 17.1 ± 3.8. This compound also yielded a Triglyceride in liver in data set [2] of 7.0 ± 0.82 mg/g. This compound gave a p-GPT in data set [2] of 73 ± 13 Karmen unit. Moreover, the Triglyceride was determined as 11.8 ± 0.39 mg/g-liver in data set [3] (compound 1 hr after ethionine), 10.3 ± 0.96 mg/g-liver in data set [3] (setting [6]) and 6.9 ± 0.38 mg/g-liver in data set [3] (setting [7]). Besides, the “Blood Sugar” value was found to be 247 ± 20.2 mg/dL with glucose metabolism [4] (30 min); 212 ± 13.1 mg/dL in the data set on glucose metabolism [4] (60 min); 177 ± 15.5 mg/dL in the data set with glucose metabolism [4] (90 min); 130 ± 10.8 mg/dL with glucose metabolism [4] (120 min); 136 ± 12.3 mg/dL in the data set with glucose metabolism [5].
In the case of `CCOC(=O)C(C(=O)OC(C)C)=C1SCC(O)S1` (stereo not drawn) [Compound 4, Ethyl isopropyl 4-hydroxy-1,3-dithiolan-2-ylidene malonate], the Triglyceride is recorded as 12.8 ± 0.92 mg/g-liver in data set [3] (compound 1 hr after ethionine), 12.0 ± 0.77 mg/g-liver in data set [3] (setting [6]) and 6.7 ± 0.43 mg/g-liver in data set [3] (setting [7]).

Broadly, the LD50 is the dose at which mortality reaches 50%. Lower therefore signals greater toxicity.

Values taken from patent publication US4080466A, “Pharmaceutical compositions containing 4-hydroxyl-1,3-dithiolan-2-ylidene malonates” (Nihon Nohyaku Co., Ltd., priority 1976, dated 1978).
